Several values for one entry are separate records, joined by “and”; a condition that tells them apart may be missing. Equal entries are not always repeated. Where two headings read alike, the source gives them in different places.

In data set [1] the test system is C. neoformans var. grubii strain ATCC 208821. Briefly: Antimicrobial growth inhibition (CO-ADD), C. neoformans. It counts as cell-based, Cryptococcus neoformans. The following applies: duplicate (n = 2) values; for % inhibition C. neoformans: 32 µg/mL. The protocol:
(§1) Compounds 1−3 and 5−12 were assayed against a selection of medically important pathogenic microorganisms (MRSA, E. coli, K. pneumoniae, A. baumanii, P. aeruginosa, C. albicans, C. neoformans), Table 4. […] To the best of our knowledge this compound had not been tested against any drug resistant strain of Gram-positive bacterium until this study.
(§2) The antimicrobial activity testing was performed by the Community for Antimicrobial Drug Discovery (CO-ADD). Compounds were assayed against a range of both Gram negative and Gram positive bacteria (see Supplementary Materials S3) including methicillin-resistant Staphylococcus aureus (MRSA) (G+), Escherichia coli (G-), Klebsiella pneumoniae (G-), Acinetobacter baumannii (G-), Pseudomonas aeruginosa (G-) together with two species of fungus (Candida albicans and Cryptococcus neoformans).
(§3) S3. Antimicrobial activity testing methodology
The compounds submitted to CO-ADD were evaluated in duplicate (n = 2) against seven microorganisms (five bacteria and two fungi) at a concentration of 32 µg/mL in a 384-well, non-binding surface plate (NBS) for each bacterial/fungal strain, keeping the final DMSO concentration to a maximum of 1% DMSO. All bacteria were cultured in cation-adjusted […]
Fungal strains were cultured for 3 days on Yeast Extract-Peptone Dextrose (YPD) agar at 30 °C. A yeast suspension of 1 x 10^6 to 5 x 10^6 CFU/mL (as determined by OD530) was prepared from five colonies. The suspension was subsequently diluted and added to each well of the compound-containing plates giving a final cell density of fungi suspension of 2.5 x 10^3 CFU/mL and a total volume of 50 µL. All plates were covered and incubated at 35 °C for 24 h without shaking. […]
Growth inhibition of C. albicans was determined measuring absorbance at 530 nm (OD530), while the growth inhibition of C. neoformans was determined measuring the difference in absorbance between 600 and 570 nm (OD600-570), after the addition of resazurin (0.001% final concentration) and incubation at 35 °C for an additional 2 h. The absorbance was measured using a Biotek Synergy HTX plate reader. The percentage of growth inhibition was calculated for each well, using negative control (medium only) and positive control (bacteria without inhibitors) on the same plate as the references. The significance of inhibition values was determined by modified Z-scores, calculated using the median and MAD of the samples (no controls) on the same plate. Samples with inhibition value above 80% and Z-score above 2.5 for either replicate (n = 2 on different plates) were classed as actives.
(§4) Colistin and vancomycin were used as positive bacterial inhibitor standards for Gram-negative and Gram-positive bac-teria, respectively. Fluconazole was used as a positive fungal inhibitor standard for C. albicans and C. neoformans. The antibiotics were provided in four concentrations, with two above and two below its MIC value, and plated into the first eight wells of column 23 of the 384-well NBS plates. The quality control (QC) of the assays was determined by the antimicrobial controls and the Z’-factor (using positive and negative controls). Each plate was deemed to fulfil the qual- […]
(§5) full growth inhibition at their highest concentration, and no growth inhibition at their lowest concentration. The seven […]
(§6) test microorganisms were Staphylococcus aureus MRSA (ATCC 43300), Escherichia coli (ATCC 25922), Klebsiella pneu-moniae (ATCC 700603), Acinetobacter baumanii (ATCC19606), Pseudomonas aeruginosa (ATCC 27853), Candida albicans (ATCC 90028) and Cryptococcus neoformans var. grubii (H99; ATCC 208821).
(§7) S4. Anthelmintic activity testing methodology
Dose-response evaluations were carried out to estimate the half-maximal inhibitory concentrations (IC50 values) for compounds against Haemonchus contortus (Haecon-5 strain) exsheathed third-stage larvae (xL3s). H. contortus were maintained in experimental sheep and procured in accordance with the institutional animal ethics guidelines and the […]

Data set [2] has as its system E. Coli (G-) strain ATCC 25922. Briefly: Antimicrobial growth inhibition (CO-ADD), E. coli. It counts as cell-based, Escherichia coli. The following applies: for % inhibition E. coli: 32 µg/mL, duplicate (n = 2) values; for MIC: ATCC25922, ATCC 25922, MIC = concentration at which growth inhibited by ≥80%, read-out: MIC E. coli. The method, then:
as §1, §2, §3
(§8) The compounds submitted to CO-ADD were evaluated in duplicate (n = 2) against seven microorganisms (five bacteria and two fungi) at a concentration of 32 µg/mL in a 384-well, non-binding surface plate (NBS) for each bacterial/fungal strain, keeping the final DMSO concentration to a maximum of 1% DMSO. All bacteria were cultured in cation-adjusted Mueller-Hinton broth (CAMHB) at 37 °C overnight. A sample of each culture was then diluted 40-fold in fresh broth and incubated at 37 °C for 1.5-3 h. The resultant mid-log phase cultures were diluted (CFU/mL measured by OD600), then added to each well of the compound containing plates, giving a cell density of 5x10^5 CFU/mL and a total volume of 50 µL. All the plates were covered and incubated at 37 °C for 18 h without shaking. […] Inhibition of bacterial growth was determined measuring absorbance at 600 nm (OD600) using a Tecan M1000 Pro mon-ochromator plate reader. […]
(§9) 2 h. The absorbance was measured using a Biotek Synergy HTX plate reader. The percentage of growth inhibition was calculated for each well, using negative control (medium only) and positive control (bacteria without inhibitors) on the same plate as the references. The significance of inhibition values was determined by modified Z-scores, calculated using the median and MAD of the samples (no controls) on the same plate. Samples with inhibition value above 80% and Z-score above 2.5 for either replicate (n = 2 on different plates) were classed as actives.
as §4, §5, §6, §7
(§10) Dose-response evaluations were carried out to estimate the half-maximal inhibitory concentrations (IC50 values) for compounds against Haemonchus contortus (Haecon-5 strain) exsheathed third-stage larvae (xL3s). H. contortus were maintained in experimental sheep and procured in accordance with the institutional animal ethics guidelines and the regulations of Australia (permit no. 1714374; University of Melbourne). Immediately prior to use, third-stage larvae (L3s) were exsheathed and sterilised by incubation in 0.15% (v/v) bleach at 38 °C for 20 min, followed by washes in […]

Data set [3] in a line: Cytotoxicity assay (CO-ADD). It counts as cell-based. The note with it: human embryonic kidney cells.
For data set [4], the system named is C. neoformans var. grubii strain ATCC 208821. Briefly: Antimicrobial growth inhibition (CO-ADD), C. neoformans. It counts as cell-based. The following applies: Cryptococcus neoformans, ATCC208821; var. grubii ATCC 208821; read-out: MIC C. neoformans.
Data set [5] has as its system A. baumannii (G-) strain ATCC 19606. Briefly: Antimicrobial growth inhibition (CO-ADD), A. baumannii. It counts as cell-based, Acinetobacter baumannii. The note with it: for % inhibition A. baumannii: 32 µg/mL; for inhibition at 32 µg/mL / MIC: Acinetobacter baumannii; for MIC: ATCC19606, ATCC 19606, read-out: MIC A. baumannii. The method, then:
as §1, §2, §3, §8, §9, §4, §5, §6, §7, §10

The subject of data set [6] is MRSA (G+) strain ATCC 43300. In words: Antimicrobial growth inhibition (CO-ADD), MRSA. It counts as cell-based, Staphylococcus aureus. The following applies: for % inhibition MRSA: 32 µg/mL, duplicate (n = 2) values; for MIC: ATCC 43300, MIC = concentration at which growth inhibited by ≥80%, range 0.25−32 µg/mL, read-out: MIC MRSA. The protocol:
as §1, §2, §3, §8, §9, §4, §5, §6, §7, §10

Data set [7] deals with P. auruginosa (G-) strain ATCC 27853. In words: Antimicrobial growth inhibition (CO-ADD), P. aeruginosa. It counts as cell-based, Pseudomonas aeruginosa. The note with it: for MIC: ATCC27853, ATCC 27853, read-out: MIC P. aeruginosa. The method, then:
as §1, §2, §3, §8, §9, §4, §5, §6, §7, §10

Data set [8] has as its system K. pneumoniae (G-) strain ATCC 700603. In words: Antimicrobial growth inhibition (CO-ADD), K. pneumoniae. It counts as cell-based, Klebsiella pneumoniae. The following applies: for % inhibition K. pneumoniae: 32 µg/mL; for inhibition at 32 µg/mL / MIC: Klebsiella pneumoniae; for MIC: ATCC700603, ATCC 700603, read-out: MIC K. pneumoniae. The method, then: as §1, §2, §3, §8, §9, §4, §5, §6, §7, §10

Data set [9] has as its system human red blood cells. Briefly: Haemolysis assay (CO-ADD). It counts as cell-based.

One may read the MIC as the smallest concentration in the dilution series that meets the test's criterion for growth inhibition. A word on the CC50: it is the concentration that lowers cell viability or growth by half. With `COC1=C(Br)[C@H](O)[C@@]2(C=C1Br)CC(C(=O)NCCCOc1c(Br)cc(CCNC(=O)C3=NO[C@]4(C=C(Br)C(OC)=C(Br)[C@@H]4O)C3)cc1Br)=NO2` [Compound 5, 11,17-deoxyfistularin-3], in data set [1], the “% inhibition C. neoformans” value was 10.4% and 3.8%. Further, in data set [2], the “% inhibition E. coli” value came to 9.5%. Also, the inhibition at 32 µg/mL is 8.1% in data set [2] (Escherichia coli, ATCC25922, read-out: % inhibition E. coli, 32 µg/mL, duplicate (n = 2) values); 10.2% in data set [5] (ATCC19606, read-out: % inhibition A. baumannii, 32 µg/mL, duplicate (n = 2) values); 10% in [6] (Staphylococcus aureus, read-out: % inhibition MRSA, 32 µg/mL, duplicate (n = 2) values); 4.3% in [7] (Pseudomonas aeruginosa, ATCC27853, read-out: % inhibition P. aeruginosa, 32 µg/mL, duplicate (n = 2) values); 6.5% in data set [8] (ATCC700603, read-out: % inhibition K. pneumoniae, 32 µg/mL, duplicate (n = 2) values). The MIC in [2] (Escherichia coli), in data set [4], in [5], in [6] (Staphylococcus aureus), in data set [7] (Pseudomonas aeruginosa) and in data set [8] was more than 32 µg/mL in each case. The CC50 in [3] is more than 32 µg/mL. The “% inhibition A. baumannii” value in data set [5] (duplicate (n = 2) values) is 8.5%. Besides, the “% inhibition MRSA” value in data set [6] was 19.8%. For the same molecule, the “% inhibition P. aeruginosa” value in data set [7] (32 µg/mL, duplicate (n = 2) values) turned out to be 7.2%. Moreover, the “% inhibition K. pneumoniae” value in data set [8] (duplicate (n = 2) values) was determined as 8.7%. The “Haemolysis (HC10)” value in data set [9] is listed as more than 32 µg/mL.
With `NC(=O)Cc1c(O)cc(Br)c(O)c1Br` [Compound 9, subereaphenol A], the “% inhibition C. neoformans” value in data set [1] was 11.9%. Moreover, the inhibition at 32 µg/mL in data set [1] (Cryptococcus neoformans, ATCC208821, 32 µg/mL, read-out: % inhibition C. neoformans) worked out at 11.2%; in data set [5] (ATCC19606, 32 µg/mL, duplicate (n = 2) values, read-out: % inhibition A. baumannii) it was 10.8%. Further, in data set [2], the “% inhibition E. coli” value was 1.5% and 9.6%. For the same molecule, the minimum inhibitory concentration (MIC) in data set [2] (Escherichia coli), in [4], in data set [5], in [6] (Staphylococcus aureus), in data set [7] (Pseudomonas aeruginosa) and in [8] was more than 32 µg/mL throughout. For the same molecule, the CC50 in [3] (human) was more than 32 µg/mL. The “% inhibition A. baumannii” value in [5] (duplicate (n = 2) values) is on record as 18.5%. Further, the “% inhibition K. pneumoniae” value in data set [8] (duplicate (n = 2) values) was 15.5% and 6.6%. Further, in data set [9], the “Haemolysis (HC10)” value turned out to be 1.032 µg/mL.
`COC1=C(Br)[C@H](O)[C@@]2(C=C1Br)CC(C(=O)NCCCCNC(=O)C1=NO[C@]3(C=C(Br)C(OC)=C(Br)[C@@H]3O)C1)=NO2` [Compound 2, aerothionin]: the “% inhibition E. coli” value in [2] was 0.9% and 2.3%. Further, the MIC in data set [2] (Escherichia coli), in [4], in data set [5], in [6] (Staphylococcus aureus), in data set [7] (Pseudomonas aeruginosa) and in [8] was more than 32 µg/mL in each case. Also, in data set [3] (human), the CC50 is more than 32 µg/mL. For the same molecule, the “% inhibition MRSA” value in [6] was −1.5% and 6.1%. For the same molecule, the “% inhibition K. pneumoniae” value in data set [8] (duplicate (n = 2) values) was found to be 10.9%. Also, in data set [8] (ATCC700603, 32 µg/mL, duplicate (n = 2) values, read-out: % inhibition K. pneumoniae), the inhibition at 32 µg/mL was found to be 10.4%. In addition, the “Haemolysis (HC10)” value in [9] is given as more than 32 µg/mL.
